According to patent publication US20070117864A1, “Composition for preventing and treating hepatoma” (Tokyo University of Agr. & Tech. TLO Co., Ltd., priority 2003, published 2007):
Marks after values point to notes of the source that are not given here.

What was measured:
AH109A cells = assay: proliferative activity of hepatoma cells by [3H]thymidine incorporation; format: cell-based, rat
Experimental: The proliferative activity of the AH109A cells was evaluated by measuring the incorporation of [^3H]thymidine (20 Ci/mmol, New England Nuclear, Boston, USA) into acid-insoluble fraction, namely, DNA [Yagasaki K., Tanabe T., Ishihara K., and Funabiki R., (1992) Modulation of the proliferation of cultured hepatoma cells by urea cycle-related amino acids. In: Murakami, H., Shirahata S., and Tachibanana H., (ed.) Animal Cell Technology: Basic and Applied Aspects. Vol. 4 (pp. 257-263). Kluwer Academic Publisher, Dordrecht/Boston/London]. […]
The plate was washed twice with 400 μl of 10% TCA; the wash solution was then recovered in Maruemu tubes, and was again subjected to centrifugally separation for 5 minutes at 3000 rpm (1500×g), 4° C., and then solubilized in 0.2N NaOH in 0.1% SDS. was added to the 48-well plate and the cells remaining in the Maruemu tubes at the respective rates of 150 μl and 50 μl, and these were allowed to stand for 30 minutes inside an incubator at 37° C., to dissolve the cells completely. […] 5 ml of an NT scintillator (700 ml of toluene, 300 ml of nonion, 4 g of DPO) was added, and 150 μl of 1N HCl was further added thereto, and it was confirmed that the liquid of the preparation thoroughly shaken had become transparent; then, the radioactivity of the preparation was measured with a liquid scintillation spectrophotometer (LS6500; Beckman, Fullerton, Calif., USA). […]

[1] = fecal steroid excretion in hepatoma-bearing rats; format: in vivo, rat; settings: for Steroid excretion Bile acids / Steroid excretion Neutral sterols: feces, final two days, mean ± SEM of 11 rats
Experimental: Male Donryu rats of four weeks old were purchased from NRC Haruna, Gumma, Japan, and were preliminarily fed for 6 days in quintuple cages in a room with a controlled environment with light period of 8:00 to 20:00, room temperature of 22±1° C., and relative humidity of 60±5%. For the first 3 days, the animals were fed ad libitum with a stock pellet diet (CE-2; CLEA Japan, Tokyo), and for the next 3 days, they were fed a basal diet containing 20% milk casein (20C) (Table 1) ad libitum together with tap water in a glass container. Following the completion of this preparatory raising, the rats were divided into three groups (11 animals per group) with equal average body weights of the respective groups were equal, and 1.0×10^7 of AH109A cells suspended in PBS (−) were transplanted in the back of all the rats. From the time immediately after transplantation, in the respective experimental groups, the animals were fed the experimental diets shown in Table 2.
During the experimental period, the body weight, food intake and solid tumor size (sum of length, width and height) were measured everyday. On the day that the animals were killed, animals were deprived of experimental diets at 9:00, but freely given water until they were killed 4 hours later. Blood was collected from carotid, and the liver and solid tumors were excised. The collected blood was allowed to stand for approximately 2 hours at room temperature, and then centrifuged for 10 minutes at 3000 rpm (1750×g), 4° C., to obtain serum. This blood serum was frozen and stored at −20° C. The livers and solid tumors were washed with physiological saline, blotted on filter paper, and weighed. Furthermore, feces from the 19th to 21st days after transplantation were collected, and these feces were frozen and stored at −20° C. for the measurement of the amounts of steroids excreted from the body.
The amounts of fecal steroids, neutral sterol (NS) and bile acid (BA), excreted into feces were measured. The feces were dried at 60° C., and the dry weight was measured; then, the feces were pulverized using a mixer and a mortar and pestle. Approximately 100 mg of feces was precisely weighed and placed in a screw-capped test tube, and then was saponified for 1 hour at 70° C. by adding 1.5 ml of 4 N potassium hydroxide solution and 1 ml of ethanol. The NS was extracted by transferring the n-hexane layer to a test tube by adding 3 ml of n-hexane to a test tube, shaking this mixture and then subjecting to centrifugal separation at 3000 rpm (1750×g) for 10 minutes. The same operation was performed three times. Subsequently, with […] of distilled water to dilute potassium hydroxide concentration thereof to 1.2 N, and the mixture was subjected to a high-pressure treatment (autoclaved) for 3 hours at 121° C., to deconjugate the conjugated BA. After the preparation was allowed to stand until cool, BA was extracted by adding 3 ml of diethyl ether after adjusting the pH of the solution to 1 with 0.8 ml of hydrochloric acid, and the resulting mixture was shaked; then, subjecting this preparation to centrifugal separation for 10 minutes at 3000 rpm (1750×g), to transfer the diethyl ether layer to a test tube. This operation was performed three times.
The n-hexane extract was dried; then, was added with 0.4 ml of isopropanol and 1.6 ml of 10% Triton X-100. to dissolve the NS. An aliquot (0.24 ml) of this solution was sampled, and was subjected to measurement of NS using a cholesterol C test Wako. […]

**Q.** What does the source list for O=C1OCC(Cc2cccc(O)c2)C1Cc1cccc(O)c1 (stereo not shown) [Enterolactone, enterolactone]?
**A.** proliferation of AH109A cells (AH109A cells; ENL 50 μM, in vitro): almost completely suppressed; inhibitory effect on proliferation, AH109A cells compared with normal M-cells (AH109A cells; in vitro comparison): stronger inhibitory effect against AH109A cells than normal M-cells; amounts of neutral sterol and bile acid excreted into the feces ([1]; ENL diet groups versus control diet group): significant and dose-dependent increase; Steroid excretion Bile acids ([1]; diet 10 ppm): 18.7 ± 1.49^ab μmol/2 days; Steroid excretion Neutral sterols ([1]; diet 10 ppm): 29.5 ± 2.7^b μmol/2 days; Steroid excretion Bile acids ([1]; diet 100 ppm): 20.8 ± 1.89^b μmol/2 days; Steroid excretion Neutral sterols ([1]; diet 100 ppm): 30.9 ± 2.18^b μmol/2 days
